Experimental findings from patent US12522602B2, “Derivatives having 2,3-dihydro-1H-indene or 2,3-dihydrobenzofuran moiety or pharmaceutically acceptable salt thereof and pharmaceutical compositions comprising the same” (YUHAN CORPORATION, priority 2019, dated 2026) are described below.

The test system of one experiment is GM1 production in Jurkat cells. The experiment is described as follows: cells. Type of experiment: cell-based.
Conditions: not given
`COc1cc2c(cc1-c1ccc(CC(C)C)cc1)CC(C)(C)C2NC(=O)O[C@@H]1CN2CCC1CC2` (stereo partly drawn) [Example 315, (S)-quinuclidin-3-yl (5-(4-isobutylphenyl)-6-methoxy-2,2-dimethyl-2,3-dihydro-1H-inden-1-yl)carbamate]: the midpoint of inhibition, the IC50, lay at 11.3 nM.

Still in this experiment, the particulars now being: Homo sapiens, Jurkat, 72 h.
With `CCC1(CC)Cc2cc(-c3c(OC)cccc3OC)ccc2C1NC(=O)O[C@@H]1CN2CCC1CC2` (stereo partly drawn) [Example 300, (S)-quinuclidin-3-yl (5-(2,6-dimethoxyphenyl)-2,2-diethyl-2,3-dihydro-1H-inden-1-yl)carbamate], the concentration for half-maximal inhibition (IC50) (in general, the midpoint of a concentration-inhibition curve) worked out at 23 nM.

With `CCC1(CC)Cc2cc(-c3cccc(C(F)F)c3)ccc2C1NC(=O)O[C@@H]1CN2CCC1CC2` (stereo partly drawn) [Example 301, (S)-quinuclidin-3-yl (5-(3-(difluoromethyl)phenyl)-2,2-diethyl-2,3-dihydro-1H-inden-1-yl)carbamate], the half-maximal inhibitory concentration (IC50) came to 9.6 nM. `CCC1(CC)Cc2cc(-c3cccc(N(C)C)c3)ccc2C1NC(=O)O[C@@H]1CN2CCC1CC2` (stereo partly drawn) [Example 302, (S)-quinuclidin-3-yl (5-(3-(dimethylamino)phenyl)-2,2-diethyl-2,3-dihydro-1H-inden-1-yl)carbamate]: the midpoint of inhibition, the IC50, lay at 4 nM. Still for that read-out and setting: as for `CCOc1c(C)cc(-c2ccc3c(c2)CC(CC)(CC)C3NC(=O)O[C@@H]2CN3CCC2CC3)cc1C` (stereo partly drawn) [Example 303, (S)-quinuclidin-3-yl (5-(4-ethoxy-3,5-dimethylphenyl)-2,2-diethyl-2,3-dihydro-1H-inden-1-yl)carbamate], the figure is 27.2 nM.

`CCCCOc1c(C)cc(-c2ccc3c(c2)CC(CC)(CC)C3NC(=O)O[C@@H]2CN3CCC2CC3)cc1C` (stereo partly drawn) [Example 305, (S)-quinuclidin-3-yl (5-(4-butoxy-3,5-dimethylphenyl)-2,2-diethyl-2,3-dihydro-1H-inden-1-yl)carbamate] displayed an IC50 of 9.8 nM.

Take `CCC1(CC)Cc2cc(-c3ccsc3)ccc2C1NC(=O)O[C@@H]1CN2CCC1CC2` (stereo partly drawn) [Example 306, (S)-quinuclidin-3-yl (2,2-diethyl-5-(thiophen-3-yl)-2,3-dihydro-1H-inden-1-yl)carbamate]: the IC50 came out at 27.5 nM. The molecule `CCC1(CC)Cc2cc(-c3ccoc3)ccc2C1NC(=O)O[C@@H]1CN2CCC1CC2` (stereo partly drawn) [Example 307, (S)-quinuclidin-3-yl (2,2-diethyl-5-(furan-3-yl)-2,3-dihydro-1H-inden-1-yl)carbamate] gave an IC50 of 30.2 nM. Regarding `CCC1(CC)Cc2cc(-c3ccc(OCC4CC4)nc3)ccc2C1NC(=O)O[C@@H]1CN2CCC1CC2` (stereo partly drawn) [Example 308, (S)-quinuclidin-3-yl (5-(6-(cyclopropylmethoxy)pyridin-3-yl)-2,2-diethyl-2,3-dihydro-1H-inden-1-yl)carbamate], half-maximal inhibition (IC50) required 5.5 nM. Molecule `CCC1(CC)Cc2cc(-c3ccc4c(c3)OC(F)(F)O4)ccc2C1NC(=O)O[C@@H]1CN2CCC1CC2` (stereo partly drawn) [Example 309, (S)-quinuclidin-3-yl (5-(2,2-difluorobenzo[d][1,3]dioxol-5-yl)-2,2-diethyl-2,3-dihydro-1H-inden-1-yl)carbamate] had a half-maximal inhibitory concentration (IC50) of 11.2 nM. Consider `CCC1(CC)Cc2cc(-c3ccc(OC)cc3F)ccc2C1NC(=O)O[C@@H]1CN2CCC1CC2` (stereo partly drawn) [Example 310, (S)-quinuclidin-3-yl (2,2-diethyl-5-(2-fluoro-4-methoxyphenyl)-2,3-dihydro-1H-inden-1-yl)carbamate], for which it took 16.3 nM to reach half-maximal inhibition (IC50). In turn, `CCC1(CC)Cc2cc(-c3ccc(OC(C)C)c(Cl)c3)ccc2C1NC(=O)O[C@@H]1CN2CCC1CC2` (stereo partly drawn) [Example 311, (S)-quinuclidin-3-yl (5-(3-chloro-4-isopropoxyphenyl)-2,2-diethyl-2,3-dihydro-1H-inden-1-yl)carbamate] returned a 50% inhibitory concentration (IC50) of 27 nM. For the molecule `CCc1ccc(-c2cc3c(cc2OC)C(NC(=O)O[C@@H]2CN4CCC2CC4)C(C)(C)C3)cc1` (stereo partly drawn) [Example 312, (S)-quinuclidin-3-yl (5-(4-ethylphenyl)-6-methoxy-2,2-dimethyl-2,3-dihydro-1H-inden-1-yl)carbamate], the IC50 came to 13.1 nM.

Consider `CCCc1ccc(-c2cc3c(cc2OC)C(NC(=O)O[C@@H]2CN4CCC2CC4)C(C)(C)C3)cc1` (stereo partly drawn) [Example 313, (S)-quinuclidin-3-yl (6-methoxy-2,2-dimethyl-5-(4-propylphenyl)-2,3-dihydro-1H-inden-1-yl)carbamate], for which half-maximal inhibition (IC50) was put at 7.3 nM. Regarding `COc1cc2c(cc1-c1ccc(C(C)C)cc1)CC(C)(C)C2NC(=O)O[C@@H]1CN2CCC1CC2` (stereo partly drawn) [Example 314, (S)-quinuclidin-3-yl (5-(4-isopropylphenyl)-6-methoxy-2,2-dimethyl-2,3-dihydro-1H-inden-1-yl)carbamate], the IC50 worked out at 7.7 nM.

Molecule `COc1cc2c(cc1-c1ccc(C(C)(C)C)cc1)CC(C)(C)C2NC(=O)O[C@@H]1CN2CCC1CC2` (stereo partly drawn) [Example 316, (S)-quinuclidin-3-yl (5-(4-(tert-butyl)phenyl)-6-methoxy-2,2-dimethyl-2,3-dihydro-1H-inden-1-yl)carbamate] returned a half-inhibitory concentration (IC50) of 13.3 nM.

With `COc1cc2c(cc1-c1ccc(C3CC3)cc1)CC(C)(C)C2NC(=O)O[C@@H]1CN2CCC1CC2` (stereo partly drawn) [Example 317, (S)-quinuclidin-3-yl (5-(4-cyclopropylphenyl)-6-methoxy-2,2-dimethyl-2,3-dihydro-1H-inden-1-yl)carbamate], the half-inhibitory concentration (IC50) was found to be 10.3 nM. Same read-out and setting: then `CCOc1ccc(-c2cc3c(cc2OC)C(NC(=O)O[C@@H]2CN4CCC2CC4)C(C)(C)C3)cc1` (stereo partly drawn) [Example 318, (S)-quinuclidin-3-yl (5-(4-ethoxyphenyl)-6-methoxy-2,2-dimethyl-2,3-dihydro-1H-inden-1-yl)carbamate], with 20 nM; and `CCCOc1ccc(-c2cc3c(cc2OC)C(NC(=O)O[C@@H]2CN4CCC2CC4)C(C)(C)C3)cc1` (stereo partly drawn) [Example 319, (S)-quinuclidin-3-yl (6-methoxy-2,2-dimethyl-5-(4-propoxyphenyl)-2,3-dihydro-1H-inden-1-yl)carbamate], with 7.7 nM. As for `COc1cc2c(cc1-c1ccc(OC(C)C)cc1)CC(C)(C)C2NC(=O)O[C@@H]1CN2CCC1CC2` (stereo partly drawn) [Example 320, (S)-quinuclidin-3-yl (5-(4-isopropoxyphenyl)-6-methoxy-2,2-dimethyl-2,3-dihydro-1H-inden-1-yl)carbamate], the midpoint of inhibition, the IC50, lay at 8.5 nM. For `CCCOc1c(C)cc(-c2cc3c(cc2OC)C(NC(=O)O[C@@H]2CN4CCC2CC4)C(C)(C)C3)cc1C` (stereo partly drawn) [Example 321, (S)-quinuclidin-3-yl (5-(3,5-dimethyl-4-propoxyphenyl)-6-methoxy-2,2-dimethyl-2,3-dihydro-1H-inden-1-yl)carbamate], the IC50 came to 31.9 nM. Molecule `COc1cc2c(cc1-c1ccc(OC(C)C)c(Cl)c1)CC(C)(C)C2NC(=O)O[C@@H]1CN2CCC1CC2` (stereo partly drawn) [Example 322, (S)-quinuclidin-3-yl (5-(3-chloro-4-isopropoxyphenyl)-6-methoxy-2,2-dimethyl-2,3-dihydro-1H-inden-1-yl)carbamate] had a half-inhibitory concentration (IC50) of 24.4 nM. In the case of `COc1ccc(-c2cc3c(cc2OC)C(NC(=O)O[C@@H]2CN4CCC2CC4)C(C)(C)C3)c(F)c1` (stereo partly drawn) [Example 323, (S)-quinuclidin-3-yl (5-(2-fluoro-4-methoxyphenyl)-6-methoxy-2,2-dimethyl-2,3-dihydro-1H-inden-1-yl)carbamate], the half-maximal inhibitory concentration (IC50) came out at 78.9 nM.

The experiment is the same for the next values; noted with them: read-out: IC50.
In the case of `CCCOc1c(C)cc(-c2ccc3c(c2)CC(CC)(CC)C3NC(=O)O[C@@H]2CN3CCC2CC3)cc1C` (stereo partly drawn) [Example 304, (S)-quinuclidin-3-yl (5-(3,5-dimethyl-4-propoxyphenyl)-2,2-diethyl-2,3-dihydro-1H-inden-1-yl)carbamate], the IC50 is 23.5 nM.
